Read-outs that look alike come from different tables or passages of the source.

In one test the target is T1, BRC4–RAD51 interaction (Homo sapiens, UniProt Q06609).
T1 construct: purchased Creative Biomart (RAD51); Life Technologies (BRC4 peptide)
T1 sequence (Q06609 1-339): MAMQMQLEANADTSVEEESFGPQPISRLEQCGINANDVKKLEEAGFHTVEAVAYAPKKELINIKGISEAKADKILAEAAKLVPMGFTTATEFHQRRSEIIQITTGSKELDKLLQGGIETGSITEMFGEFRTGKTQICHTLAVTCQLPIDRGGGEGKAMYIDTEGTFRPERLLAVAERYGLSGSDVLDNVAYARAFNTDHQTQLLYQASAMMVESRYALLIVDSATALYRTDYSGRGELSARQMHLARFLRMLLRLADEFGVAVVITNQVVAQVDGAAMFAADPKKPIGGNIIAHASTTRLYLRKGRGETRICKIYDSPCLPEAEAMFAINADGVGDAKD
The experiment in a line: Competitive biochemical ELISA assay (biotinylated BRC4 peptide vs RAD51). The class given is binding. The protocol: To investigate the mechanism of action of the new dihydroquinolone pyrazoline derivatives, different biological assays were performed. As a primary screening, the ability of compounds 5d–57d to inhibit RAD51-BRCA2 interaction was investigated with a competitive biochemical ELISA assay against the parent compound 4d (Table 1). This assay is effective in evaluating the ability of new molecules to compete with BRC4 to bind to RAD51.[30] […] 18d–21d, 23d, 25d, 30d, and 31d were active at micromolar range, all very similar to the initial hit. […] The replacement of the aromatic ring A in combination with the substitution of the pyrazoline nitrogen with either propionyl or acetyl chain yielded compounds 33d–51d. […] As expected for PPI disruptors, the SARs of the new series of dihydroquinolone pyrazoline were rather complex to rationalize, with many cliffs and spikes that were difficult to understand. […] Accordingly, 4d, 12d, 18d, 20d–23d, 30d, 31d, 33d–36d, 39d, 45d, and 49d were submitted to cell-based study (Table 2).
Competitive ELISA screening assay using biotinylated BRC4 peptide to disrupt the BRC4–RAD51 interaction was performed by modifying the method described by Rajendra et al.[33] BRC4-biotinylated peptide (N-term biotin-[…] from Life Technologies) was used to coat 384-well plates (Nunc). After washing with PBS containing 0.05% Tween-20 (PBST) and blocking with the solution BSA 1% /PBST, overnight hybridization with human RAD51 protein (NP_002866 Creative Biomart, NY) was performed. Test compounds were added in dose response from 0.01 to 100 μM in triplicate with constant DMSO 1%. Antibody raised against RAD51 (Millipore) and HRP-secondary antibody staining to develop the 3,3′,5,5′-tetramethylbenzidine signal (Sigma) quenched with 1 M HCl was used as the assay readout. Colorimetric measure was read on a Victor5 (PerkinElmer) plate reader. BRC4 and Rad51 were included in the assay as positive control. Results were analyzed by using GraphPad software.
Background: In an ELISA, binding on a coated surface is turned into a signal by an enzyme label.

The test system of test [1] is homologous recombination in BxPC3 cells. Description: Homologous recombination assay (two-plasmid recombination, real-time PCR). The class given is cell-based, human. The conditions noted are these: Homo sapiens, BXPC-3; 40 μM, BxPC3, 5 h during plasmid transfection. The source says: Our working hypothesis is that compounds disrupting RAD51-BRCA2 interaction should affect HR repair and increase the efficacy of PARPi in treating breast, ovarian, and pancreatic cancer. For its clinical relevance, pancreatic adenocarcinoma was selected as our final model for cell-based experiments, and BxPC3 cells were selected for a straightforward comparison with the previously reported triazole derivatives.[30],[31] BxPC3 is derived from a human adenocarcinoma that expresses fully functional BRCA2.[38] As shown in Table 2 and according to the rationale of our hypothesis, our preliminary screening consisted of verifying the efficacy of compounds in inhibiting cell HR and/or in increasing the antiproliferative effect of olaparib. […] HR activity was assessed by evaluating the recombination rate between two transfected plasmids, using a commercially available assay. […] As for the emissucinic acid-containing compounds (4d, 12d, 18d, 20d–23d, 30d, 31d), one of the reasons for their lower potency in cells might be the general poor permeability, likely related to the ionizable acid moiety. […] We then characterized 35d in additional biophysical and cell-based experiments.
Homologous recombination (HR) was assessed by using a commercially available assay (Norgen). This assay is based on cell transfection with two plasmids that, upon cell entry, recombine. The efficiency of HR can be assessed by real-time PCR, using primer mixtures included in the assay kit. Different primer mixtures allow one to discriminate between the original plasmid backbones and their recombination product.
BxPC3 cells (2 × 10^5 per well) were seeded in a 24-well plate and allowed to adhere overnight. Co-transfection with the two plasmids was performed in Lipofectamine 2000 (Invitrogen) according to the manufacturer’s instructions. During transfection (5 h), cells were exposed to different doses of RAD51-BRCA2 disruptors, dissolved in RPMI in the presence of 0.6% DMSO. After washing with PBS, cells were harvested, and DNA was isolated using Illustra Tissue and Cell Genomic Prep Mini Spin kit (GE Healthcare). Sample concentration was measured using an ONDA Nano Genius photometer. The efficiency of HR was assessed by real-time PCR, using 25 ng of template, the primer mixtures included in the assay kit and following the protocol indicated by the manufacturer. Data analysis was based on the ΔΔCt method: [recombination product/backbone plasmids]^treated versus [recombination product/backbone plasmids]^control.
A general note: In qPCR the cycle at which signal appears reflects the starting amount.

Where [2] appears, read: competition with BRC4 for RAD51, triplicate, ± standard deviation, NA = not active, racemic mixtures unless enantiomer named, read-out: EC50 (μM) on ELISA assay.
[3] abbreviates: competition with BRC4 for RAD51, triplicate, ± standard deviation, NA = not active, racemic mixtures unless enantiomer named.

Broadly, the EC50 is the concentration that produces a half-maximal response. In general, inhibition refers to the relative decrease from the control value, in per cent. For the compound `O=C(O)CCC(=O)N1N=C(c2c(-c3ccccc3)c3cc(Cl)ccc3[nH]c2=O)CC1c1ccc(F)cc1` (stereo not drawn) [Compound 4d, 4-(3-(6-Chloro-2-oxo-4-phenyl-1,2-dihydroquinolin-3-yl)-5-(4-fluorophenyl)-4,5-dihydro-1H-pyrazol-1-yl)-4-oxobutanoic Acid], the EC50 was found to be 16 ± 4 µM on BRC4–RAD51 interaction (Table 2, compounds selected for cell-based study, read-out: EC50 ELISA) and 16 ± 4 µM at BRC4–RAD51 interaction (setting [2]). The inhibition at 40 µM in test [1] came to 10%.
In the case of `CC(=O)N1N=C(c2c(-c3ccccc3)c3cc(Cl)ccc3[nH]c2=O)CC1c1ccc(F)cc1` (stereo not drawn) [Compound 5d, 3-(1-Acetyl-5-(4-fluorophenyl)-4,5-dihydro-1H-pyrazol-3-yl)-6-chloro-4-phenylquinolin-2(1H)-one], the EC50 at BRC4–RAD51 interaction (setting [2]) stood at 50 ± 10 µM.
On the same count and under the same terms, the result for `CCC(=O)N1N=C(c2c(-c3ccccc3)c3cc(Cl)ccc3[nH]c2=O)CC1c1ccc(F)cc1` (stereo not drawn) [Compound 6d, 6-Chloro-3-(5-(4-fluorophenyl)-1-propionyl-4,5-dihydro-1H-pyrazol-3-yl)-4-phenylquinolin-2(1H)-one] reads 34 ± 3 µM.
Still for that read-out and setting: the result for `O=C(O)CCC(=O)N1N=C(c2c(-c3ccccc3)c3cc(Cl)ccc3[nH]c2=O)CC1c1ccc(Cl)cc1` (stereo not drawn) [Compound 11d, 4-(3-(6-Chloro-2-oxo-4-phenyl-1,2-dihydroquinolin-3-yl)-5-(4-chlorophenyl)-4,5-dihydro-1H-pyrazol-1-yl)-4-oxobutanoic Acid] reads 59 ± 8 µM.
Still for that read-out and setting: the result for `O=C(O)CCC(=O)N1N=C(c2c(-c3ccccc3)c3cc(Cl)ccc3[nH]c2=O)CC1c1ccc(C(F)(F)F)cc1` (stereo not drawn) [Compound 16d, 4-(3-(6-Chloro-2-oxo-4-phenyl-1,2-dihydroquinolin-3-yl)-5-(4-(trifluoromethyl)phenyl)-4,5-dihydro-1H-pyrazol-1-yl)-4-oxobutanoic Acid] reads 29 ± 2 µM; that for `O=C(O)CCC(=O)N1N=C(c2c(-c3ccccc3)c3cc(Cl)ccc3[nH]c2=O)CC1c1ccc(-c2ccc(Cl)cc2)cc1` (stereo not drawn) [Compound 19d, 4-(3-(6-Chloro-2-oxo-4-phenyl-1,2-dihydroquinolin-3-yl)-5-(4′-chloro-[1,1′-biphenyl]-4-yl)-4,5-dihydro-1H-pyrazol-1-yl)-4-oxobutanoic Acid], 25 ± 5 µM.
For the compound `CCn1ncc2cc(C3CC(c4c(-c5ccccc5)c5cc(Cl)ccc5[nH]c4=O)=NN3C(=O)CCC(=O)O)ccc21` (stereo not drawn) [Compound 24d, 4-(3-(6-Chloro-2-oxo-4-phenyl-1,2-dihydroquinolin-3-yl)-5-(1-ethyl-1H-indazol-5-yl)-4,5-dihydro-1H-pyrazol-1-yl)-4-oxobutanoic Acid], at BRC4–RAD51 interaction (setting [3]), the “EC50 (μM) on ELISA assay” value is “inactive”.
Turning to `CCn1cc2cc(C3CC(c4c(-c5ccccc5)c5cc(Cl)ccc5[nH]c4=O)=NN3C(=O)CCC(=O)O)ccc2n1` (stereo not drawn) [Compound 25d, 4-(3-(6-Chloro-2-oxo-4-phenyl-1,2-dihydroquinolin-3-yl)-5-(2-ethyl-2H-indazol-5-yl)-4,5-dihydro-1H-pyrazol-1-yl)-4-oxobutanoic Acid], the EC50 on BRC4–RAD51 interaction (setting [2]) was 28 ± 4 µM.
The same measure, in the same setting: the result for `CCCn1cc(-c2ccc(C3CC(c4c(-c5ccccc5)c5cc(Cl)ccc5[nH]c4=O)=NN3C(=O)CCC(=O)O)cc2)cn1` (stereo not drawn) [Compound 32d, 4-(3-(6-Chloro-2-oxo-4-phenyl-1,2-dihydroquinolin-3-yl)-5-(4-(1-propyl-1H-pyrazol-4-yl)phenyl)-4,5-dihydro-1H-pyrazol-1-yl)-4-oxobutanoic Acid] reads 65 ± 5 µM; that for `CC(=O)N1N=C(c2c(-c3ccccc3)c3cc(Cl)ccc3[nH]c2=O)CC1c1ccc(Br)cc1` (stereo not drawn) [Compound 37d, 3-(1-Acetyl-5-(4-bromophenyl)-4,5-dihydro-1H-pyrazol-3-yl)-6-chloro-4-phenylquinolin-2(1H)-one], 38 ± 7 µM.
`COc1ccc(C2CC(c3c(-c4ccccc4)c4cc(Cl)ccc4[nH]c3=O)=NN2C(C)=O)cc1` (stereo not drawn) [Compound 38d, 3-(1-Acetyl-5-(4-methoxyphenyl)-4,5-dihydro-1H-pyrazol-3-yl)-6-chloro-4-phenylquinolin-2(1H)-one]: the “EC50 (μM) on ELISA assay” value at BRC4–RAD51 interaction (setting [3]) was “inactive”.
With `CC(=O)N1N=C(c2c(-c3ccccc3)c3cc(Cl)ccc3[nH]c2=O)CC1c1ccc(-c2ccc(Cl)cc2)cc1` (stereo not drawn) [Compound 42d, 3-(1-Acetyl-5-(4′-chloro-[1,1′-biphenyl]-4-yl)-4,5-dihydro-1H-pyrazol-3-yl)-6-chloro-4-phenylquinolin-2(1H)-one], at BRC4–RAD51 interaction (setting [2]), the EC50 stood at 45 ± 8 µM.
On the same count and under the same terms, the result for `CC(=O)N1N=C(c2c(-c3ccccc3)c3cc(Cl)ccc3[nH]c2=O)CC1c1ccc(-c2ccc(Br)cc2)cc1` (stereo not drawn) [Compound 43d, 3-(1-Acetyl-5-(4′-bromo-[1,1′-biphenyl]-4-yl)-4,5-dihydro-1H-pyrazol-3-yl)-6-chloro-4-phenylquinolin-2(1H)-one] reads 70 ± 15 µM; that for `COc1ccc(-c2ccc(C3CC(c4c(-c5ccccc5)c5cc(Cl)ccc5[nH]c4=O)=NN3C(C)=O)cc2)cc1` (stereo not drawn) [Compound 44d, 3-(1-Acetyl-5-(4′-methoxy-[1,1′-biphenyl]-4-yl)-4,5-dihydro-1H-pyrazol-3-yl)-6-chloro-4-phenylquinolin-2(1H)-one], 70 ± 6 µM; that for `CCn1ccc2cc(C3CC(c4c(-c5ccccc5)c5cc(Cl)ccc5[nH]c4=O)=NN3C(C)=O)ccc21` (stereo not drawn) [Compound 46d, 3-(1-Acetyl-5-(1-ethyl-1H-indol-5-yl)-4,5-dihydro-1H-pyrazol-3-yl)-6-chloro-4-phenylquinolin-2(1H)-one], 50 ± 15 µM.
The same measure, in the same setting: then `CCn1ncc2cc(C3CC(c4c(-c5ccccc5)c5cc(Cl)ccc5[nH]c4=O)=NN3C(C)=O)ccc21` (stereo not drawn) [Compound 47d, 3-(1-Acetyl-5-(1-ethyl-1H-indazol-5-yl)-4,5-dihydro-1H-pyrazol-3-yl)-6-chloro-4-phenylquinolin-2(1H)-one], with 40 ± 3 µM.
With `CCn1cc2cc(C3CC(c4c(-c5ccccc5)c5cc(Cl)ccc5[nH]c4=O)=NN3C(C)=O)ccc2n1` (stereo not drawn) [Compound 48d, 3-(1-Acetyl-5-(2-ethyl-2H-indazol-5-yl)-4,5-dihydro-1H-pyrazol-3-yl)-6-chloro-4-phenylquinolin-2(1H)-one], the “EC50 (μM) on ELISA assay” value at BRC4–RAD51 interaction (setting [3]) is “inactive”.
Same read-out and setting: then `CCCn1cc2cc(C3CC(c4c(-c5ccccc5)c5cc(Cl)ccc5[nH]c4=O)=NN3C(C)=O)ccc2n1` (stereo not drawn) [Compound 50d, 3-(1-Acetyl-5-(2-propyl-2H-indazol-5-yl)-4,5-dihydro-1H-pyrazol-3-yl)-6-chloro-4-phenylquinolin-2(1H)-one], with “inactive”.
With `CCCn1cc(-c2ccc(C3CC(c4c(-c5ccccc5)c5cc(Cl)ccc5[nH]c4=O)=NN3C(C)=O)cc2)cn1` (stereo not drawn) [Compound 51d, 3-(1-Acetyl-5-(4-(1-propyl-1H-pyrazol-4-yl)phenyl)-4,5-dihydro-1H-pyrazol-3-yl)-6-chloro-4-phenylquinolin-2(1H)-one], the EC50 on BRC4–RAD51 interaction (setting [2]) came to 46 ± 9 µM.

The values are drawn from publication PMC7997579, “Synthetic Lethality in Pancreatic Cancer: Discovery of a New RAD51-BRCA2 Small Molecule Disruptor That Inhibits Homologous Recombination and Synergizes with Olaparib” (Journal of Medicinal Chemistry, 2020).
